Test results from ChEMBL document CHEMBL1150527, “Bifunctional antitumor agents: a DNA interactive enediyne from the pyrrolo[9,10-b]phenanthrene template” (Bioorg Med Chem Lett, 1997).

Columns and labels:
Format in all cases: nucleic-acid assay
Nucleic Acid [1] = experiment: DNA cleavage activity using supercoiled bacteriophage (piX174Rf III) DNA at 10e-3 M concentration (0% control)
Nucleic Acid [2] = experiment: DNA cleavage activity using supercoiled bacteriophage (piX174Rf I) DNA at 10e-3 M concentration (95% control)
Nucleic Acid [3] = experiment: DNA cleavage activity using supercoiled bacteriophage (piX174Rf I) DNA at 10e-4 M concentration (95% control)
Nucleic Acid [4] = experiment: DNA cleavage activity using supercoiled bacteriophage (piX174Rf II) DNA at 10e-4 M concentration (5% control)
Nucleic Acid [5] = experiment: DNA cleavage activity using supercoiled bacteriophage (piX174Rf III) DNA at 10e-4 M concentration (0% control)
Nucleic Acid [6] = experiment: DNA cleavage activity using supercoiled bacteriophage (piX174Rf III) DNA at 10e-5 M concentration (0% control)
Nucleic Acid [7] = experiment: DNA cleavage activity using supercoiled bacteriophage (piX174Rf II) DNA at 10e-5 M concentration (5% control)
Nucleic Acid [8] = experiment: DNA cleavage activity using supercoiled bacteriophage (piX174Rf II) DNA at 10e-3 M concentration (5% control)
Nucleic Acid [9] = experiment: DNA cleavage activity using supercoiled bacteriophage (piX174Rf I) DNA at 10e-5 M concentration (95% control)

| Cleavage (Nucleic Acid [1]) | Cleavage (Nucleic Acid [2]) | Cleavage (Nucleic Acid [3]) | Cleavage (Nucleic Acid [4]) | Cleavage (Nucleic Acid [5]) | Cleavage (Nucleic Acid [6]) | Cleavage (Nucleic Acid [7]) | Cleavage (Nucleic Acid [8]) | Cleavage (Nucleic Acid [9]) | Structure (SMILES) |
| --- | --- | --- | --- | --- | --- | --- | --- | --- | --- |
| 3% | 15% | 78% | 22% | 0% | 0% | 7% | 82% | 93% | O=C(OCC1CC#C/C=C\C#CCC1)c1ccccc1 (stereo not drawn) |
| 5% | 7% | 45% | 55% | 0% | 0% | 21% | 88% | 79% | O=C(OCC1CC#C/C=C\C#CCC1)c1cc2c3ccccc3c3ccccc3c2[nH]1 (stereo not drawn) |
